The nature of data set [1]: Absorption spectra and extinction coefficients of dyes. Type of data set: physicochemical. The following applies: for Extinction coefficient ε at λmax (abs): synthesis example, no unit. On the procedure:
Absorption spectra were measured at RT on a Perking Elmer Lambda 35 UV/Vis spectrophotometer. […] The stock solution was diluted (1:2000) and the absorbance was measured in a 5-cm standard quartz cell. All dye concentrations were in the range of 1.1 to 2.0×10^−7 M. The extinction coefficients were calculated according to Lambert-Beer's law.

A short description of data set [2]: Fluorescence emission spectra and quantum yield relative to HITC. It is filed as physicochemical. The following applies: for QY (fluor): given as fraction in synthesis example. On the procedure:
Fluorescence spectra for the dyes were determined at RT on a Varian Cary Eclipse spectrofluorometer in a standard 1-cm quartz cell. The spectra were corrected. All concentrations of the fluorophores were chosen to be between 0.2 and 1.0 μM.
For the determination of the quantum yields (QY), the integrated relative intensities of the dyes or dye-protein conjugates, were measured against HITC as the reference. All absorbances at excitation wavelength (λexc) were in the range of 0.04-0.08 (when measured in a 1-cm cell).
The QY of each sample was independently measured 3-4 times and the average value was calculated.

A short description of data set [3]: Singlet oxygen quantum yield, DPBF scavenger method in ethanol. It is filed as physicochemical. The note with it: measured in ethanol, 650 nm laser, ICG reference.
Method: The modified relative photochemical method of Spiller W. et al. (J. Porphyrins Phthalocyanines, 1998, V. 2, 145-158) utilizing 1,3-diphenylisobenzofuran (DPBF) as a chemical scavenger was used to determine the photosensitiser's singlet oxygen quantum yields (ΦΔ) in ethanol solutions.
Ethanolic solutions containing DPBF (10 μM) and sensitizers with absorbance (optical density) in a range between 0.09 and 0.10 at 650 nm (measured in a standard 1-cm quartz cell) were prepared. Samples were saturated with oxygen by bubbling. Next, 3 mL of the solution were placed in a 1-cm cell equipped with a stirring bar and a 10 mW, 650 nm diode laser was hermetically attached to the top of cuvette so as to avoid solvent evaporation and to provide a light beam direction from top to bottom of the cuvette. The solution in the cuvette was irradiated with the diode laser under continuous stirring for a certain time. DPBF consumption was determined by monitoring DPBF bleaching over irradiation time using absorption spectroscopy at 411 nm (extinction coefficient 22,000 M^−1 cm^−1). At least six absorption spectra were obtained for each solution at different irradiation times until the DPBF absorbance reduced at least to the 10% of the initial absorbance.
The decrease of DPBF absorbance at 411 nm versus irradiation time was plotted for each photosensitizer and the DPBF degradation rate constant (K) characterizing the reaction rate of singlet oxygen with DPBF in presence of a sensitizer was calculated.
Data set [4] can be described thus: Phototoxicity (glow lamp) and dark toxicity by hemolysis of bovine erythrocytes. It is filed as cell-based. The note with it: bovine, bovine erythrocytes, Glow Lamp. On the procedure: (§1) Bovine erythrocytes were isolated from blood plasma stored with sodium citrate. 1 mL of bovine blood was treated at centrifuge (3,000 rpm) for 10 min to precipitate erythrocytes. The supernatant was decanted, 2 mL of physiological solution were added, treated and erythrocytes were precipitated with centrifuge. The washing procedure was repeated for 3 times and the precipitated erythrocytes were collected. […] Cells were dye-incubated for 45 minutes at 37° C. in the dark. Then the examined suspensions of cells (erythrocytes) were placed at a distance of 30-cm from a 250 W glow red-lamp equipped with a water-based heat filter and irradiated with occasional stirring. After irradiation, cells were stored at 4° C. for 15 hours. […] The hemolysis level (percentage of hemolyzed cells) was determined as the ratio of absorbances of the supernatant and a solution of 100% hemolysed cells. The 100% hemolysis was taken as the value obtained when the given number of erythrocytes were suspended in distilled water.

Another data set relates to bovine erythrocytes. The data set is described as above. Type of data set: cell-based. The note with it: Dark, 50 μM. On the procedure:
as §1

16 compounds from US9572881B2, “Halogenated compounds for photodynamic therapy” (Nanoquantum Sciences, Inc., priority 2012, dated 2017) can be followed below.

Several values for one entry are separate records, joined by “and”; a condition that tells them apart may be missing. Equal values may be shown once.

As for `CC1(CCCCCC(=O)O)C(/C=C/C=C/C=C/C=C2\N(CCCCS(=O)(=O)O)c3ccc(S(=O)(=O)[O-])cc3C2(C)CCCCS(=O)(=O)O)=[N+](CCCS(=O)(=O)O)c2cc(I)c(I)c(I)c21` (stereo not drawn) [I-84, 4-[2-7-[3-(5-carboxypentyl)-4,5,6-triiodo-3-methyl-1-(3-sulfopro-pyl)-2,3-dihydro-1H-2-indolyliden]-1,3,5-heptatrienyl-3-methyl-5-sulfo-3-(4-sulfobutyl)-3H-1-indoliumyl]-1-butanesulfonate], the Absorption max. in data set [1] (Conjugates with IgG (antibody)) is recorded as 762 nm; in data set [1] (Phosphate buffer (pH 7.4)) it was 758 nm; in data set [1] (Water), 758 nm. Also, the “Extinction coefficient ε at λmax (abs)” value in data set [1] (water) is reported as 270,000. The Emission max. in data set [2] (Conjugates with IgG (antibody)), in data set [2] (Phosphate buffer (pH 7.4)) and in data set [2] (Water) was 787 nm throughout. The same compound gave a Fluorescence quantum yield in data set [2] (Water (PB, pH 7.4)) of 20%. For the same compound, in data set [2] (water), the “QY (fluor)” value is listed as 0.20.

Regarding `CN1\C(=C/C=C/C=C/C=C/C2=[N+](C)c3cc(Br)c(Br)c(Br)c3C2(C)C)C(C)(C)c2c1cc(Br)c(Br)c2Br.[I-]` [I-88, 4,5,6-tribromo-1,3,3-trimethyl-2-[7-(4,5,6-tribromo-1,3,3-trimethyl-2,3-dihydro-1H-2-indolyliden)-1,3,5-heptatrienyl]-3H-indolium iodide], in data set [1] (Methanol), the Absorption max. is 748 nm and the “Extinction Coefficient” value was 240,000 M^−1cm^−1. Moreover, in data set [1] (methanol), the “Extinction coefficient ε at λmax (abs)” value is recorded as 240,000. In data set [2] (Methanol), this compound returned an Emission max. of 778 nm and a Fluorescence quantum yield of 50%. Also, the “QY (fluor)” value in data set [2] (methanol) is recorded as 0.50. Moreover, the “Singlet oxygen generation quantum yield ΦΔ” value in data set [3] was found to be 11%.

On to `CN1\C(=C/C=C/C=C/C=C/C2=[N+](C)c3cc(I)c(I)c(I)c3C2(C)CCCCCC(=O)N2CC[N+]3(CC2)CC[N+]2(CCNCC2)CC3)C(C)(CCCCCC(=O)N2CC[N+]3(CC2)CC[N+]2(CCNCC2)CC3)c2c1cc(I)c(I)c2I.[Cl-].[Cl-].[Cl-].[Cl-].[Cl-]` (stereo not drawn) [I-94], for which the Absorption max. in data set [1] (Methanol) is 759 nm; in data set [1] (Water) it was 695 nm and 756 nm. Besides, the figures for the Emission max. in data set [2] (Methanol) and in data set [2] (Water) were 788 nm and 782 nm, respectively. The Fluorescence quantum yield is given as 38% in data set [2] (Methanol) and 1.8% in data set [2] (Water).

Compound `CN1/C(=C\C=C2/CCCC(/C=C/C3=[N+](C)c4cc(I)c(I)c(I)c4C3(C)C)=C2Cl)C(C)(C)c2c1cc(I)c(I)c2I.[I-]` [I-96] displayed an Absorption max. in data set [1] (Methanol) of 787 nm. In data set [2] (Methanol), the Emission max. is recorded as 808 nm and the Fluorescence quantum yield is reported as 21%.

Consider `CN1/C(=C\C=C2/CCCC(/C=C/C3=[N+](C)c4ccc(I)cc4C3(C)C)=C2Cl)C(C)(C)c2cc(I)ccc21.[I-]` [I-56], for which, in data set [1] (Methanol), the Absorption max. is given as 784 nm. In data set [2] (Methanol), this compound showed an Emission max. of 806 nm and a Fluorescence quantum yield of 16%.

In data set [1] (Methanol), `CN(C)c1ccc(SC2=C(/C=C/C3=[N+](C)c4ccc(I)cc4C3(C)C)CCC/C2=C\C=C2/N(C)c3ccc(I)cc3C2(C)C)cc1.[I-]` [I-61] displayed an Absorption max. of 792 nm. In data set [2] (Methanol), the Emission max. is 812 nm and the Fluorescence quantum yield is 14%.

In the case of `CC1(CCCCCC(=O)N2CC[N+]3(CC2)CC[N+]2(CCNCC2)CC3)C(/C=C/C=C/C=C/C=C2\N(CCCS(=O)(=O)[O-])c3cc(I)c(I)c(I)c3C2(C)CCCCCC(=O)N2CC[N+]3(CC2)CC[N+]2(CCNCC2)CC3)=[N+](CCCS(=O)(=O)[O-])c2cc(I)c(I)c(I)c21.[Cl-].[Cl-].[Cl-]` (stereo not drawn) [I-91], in data set [1] (Methanol), the Absorption max. worked out at 766 nm. Moreover, in data set [2] (Methanol), the Emission max. came to 795 nm and the Fluorescence quantum yield amounted to 26%.

`CC(C)(C)C1=CC(=C/C=C/C=C/C=C/C2=[N+](CCCS(=O)(=O)[O-])c3ccc(I)cc3C2(C)CCCCCC(=O)O)C=C(C(C)(C)C)O1` (stereo not drawn) [I-68] registered an Absorption max. in data set [1] (Methanol) of 794 nm. Besides, in data set [2] (Methanol), the Emission max. worked out at 826 nm and the Fluorescence quantum yield came to 6%.

For the compound “1-(5-carboxypentyl)-2-[7-(4,6-diiodo-1,3,3-trimethyl-3H-2-indoliumyl)-2,4,6-heptatrienylidene]-3,3-dimethyl-5-indolinesulfonate [I-73]”, the Absorption max. in data set [1] (Methanol) turned out to be 748 nm. In data set [2] (Methanol), this compound came in with an Emission max. of 779 nm and a Fluorescence quantum yield of 41%. Further, the “QY (fluor)” value in data set [2] (methanol) is reported as 0.41.

Regarding `CN1\C(=C/C=C/C=C/C=C/C2=[N+](C)c3cc(I)c(I)c(I)c3C2(C)CCCCCC(=O)O)C(C)(CCCCCC(=O)O)c2c1cc(I)c(I)c2I.[I-]` (stereo not drawn) [I-93], the Absorption max. in data set [1] (Methanol) turned out to be 755 nm; in data set [1] (Water), 783 nm. In addition, the Emission max. in data set [2] (Methanol) is on record as 783 nm; in data set [2] (Water), “n.f”. In data set [2] (Methanol), this compound had a Fluorescence quantum yield of 47%.

`C[N+]1=C(C=CC=CC=CC=C2N(CCCCS(=O)(=O)[O-])c3ccc(S(=O)(=O)O)cc3C2(C)C)C(CCCCCC(=O)O)c2c(I)cc(I)cc21` (stereo not drawn) [I-83, 4-(2-7-[3-(5-carboxypentyl)-4,6-diiodo-1-methyl-3H-2-indoliumyl]-2,4,6-heptatrienylidene-3,3-dimethyl-5-sulfo-2,3-dihydro-1H-1-indolyl)-1-butanesulfonate]: the Absorption max. is recorded as 755 nm in data set [1] (Conjugates with IgG (antibody)), 750 nm in data set [1] (Methanol) and 748 nm in data set [1] (Water). For the same compound, the Emission max. came to 776 nm in data set [2] (Conjugates with IgG (antibody)), 779 nm in data set [2] (Methanol) and 776 nm in data set [2] (Water). For the same compound, the Fluorescence quantum yield in data set [2] (Methanol) came to 43%; in data set [2] (Water), 22%.

For the compound `CN1\C(=C/C=C/C=C/C=C/C2=[N+](C)c3cc(I)cc(I)c3C2(C)CCCCCC(=O)O)C(C)(CCCCCC(=O)O)c2c(I)cc(I)cc21.[I-]` (stereo not drawn) [I-79, 3-(5-carboxypentyl)-2-7-[3-(5-carboxypentyl)-4,6-diiodo-1,3-dimethyl-2,3-dihydro-1H-2-indolyliden]-1,3,5-heptatrienyl-4,6-diiodo-1,3-dimethyl-3H-indolium iodide], the Absorption max. in data set [1] (Chloroform) is reported as 763 nm. In addition, in data set [4] (0.5 μM, exposure 60 min), the hemolysis at 60 min, 0.5 µM amounted to 75%. This compound showed a hemolysis at 30 min, 1 µM in data set [4] (1 μM, exposure 30 min) of 80%. In the data set with bovine erythrocytes, this compound returned a Hemolysis of 4%.

As for `CC1(CCCCCC(=O)NCCS(=O)(=O)O)C(/C=C/C=C/C=C/C=C2\N(CCCS(=O)(=O)O)c3cc(I)c(I)c(I)c3C2(C)CCCCCC(=O)NCCS(=O)(=O)O)=[N+](CCCS(=O)(=O)[O-])c2cc(I)c(I)c(I)c21` (stereo not drawn) [I-92], the Absorption max. in data set [1] (Methanol) is listed as 764 nm. In data set [2] (Methanol), this compound had an Emission max. of 794 nm and a Fluorescence quantum yield of 39%.

As to “1-(5-carboxypentyl)-2-[7-(4,6-diiodo-1,3,3-trimethyl-3H-2-indoliumyl)-2,4,6-heptatrienylidene]-3-methyl-3-(4-sulfobutyl)-5-indolinesulfonate [I-72]”, the Absorption max. in data set [1] (Methanol) and in data set [1] (Water) was 750 nm in each case. In addition, in data set [1] (Water), the “Extinction Coefficient” value is 270,000 M^−1cm^−1. For the same compound, the “Extinction coefficient ε at λmax (abs)” value in data set [1] (water) is reported as 270,000. Besides, the values for the Emission max. in data set [2] (Methanol) and in data set [2] (Water) were 780 nm and 777 nm, respectively. The Fluorescence quantum yield stood at 41% in data set [2] (Methanol) and 21% in data set [2] (Water). Also, the figures for the “QY (fluor)” value in data set [2] (methanol) and in data set [2] (water) were 0.41 and 0.21, respectively. Moreover, the “Singlet oxygen generation quantum yield ΦΔ” value in data set [3] is 12%.

For the compound `C[N+]1=C(C=CC=CC=CC=C2N(CCCCCC(=O)NCCOCCOCCOCCC(=O)O)c3ccc(S(=O)(=O)[O-])cc3C2(C)CCCCS(=O)(=O)O)C(C)(C)c2c(I)cc(I)cc21` (stereo not drawn) [I-89, 1-[5-(2-2-[2-(2-carboxyethoxy)ethoxy]ethoxyethylcarbamoyl)-pentyl]-2-[7-(4,6-diiodo-1,3,3-trimethyl-3H-2-indoliumyl)-2,4,6-heptatrienylidene]-3-methyl-3-(4-sulfobutyl)-5-indolinesulfonate], in data set [1] (Water), the Absorption max. amounted to 750 nm and the “Extinction Coefficient” value is 270,000 M^−1cm^−1. Moreover, in data set [2] (Water), the Emission max. was 777 nm and the Fluorescence quantum yield was 21.5%. The “Singlet oxygen generation quantum yield ΦΔ” value in data set [3] worked out at 13%.

As for “3-(5-carboxypentyl)-2-[7-(4,6-diiodo-1,3,3-trimethyl-2,3-dihydro-1H-2-indolyliden)-1,3,5-heptatrienyl]-1,1-dimethyl-6-sulfo-8-(1H-benzo[e]indolium)sulfo-nate [I-74]”, the Absorption max. in data set [1] (Methanol) turned out to be 760 nm. In data set [2] (Methanol), this compound gave an Emission max. of 793 nm and a Fluorescence quantum yield of 22%. Further, in data set [2] (methanol), the “QY (fluor)” value is 0.22.
